From EPA's ToxRefDB 2 come the findings set out here.

In data set [1] the test system is rat. To be noted: Sub-acute repeat dose toxicity, sprague dawley, Oral, Gavage/Intubation, dose end: 14 day, group: systemic.
In data set [2] the test system is rat. The settings on record: Sub-acute repeat dose toxicity, sprague dawley, Oral, Gavage/Intubation, dose end: 14 day, group: systemic. The source holds these as a separate data set.
In data set [3] the test system is primate. To be noted: Sub-acute repeat dose toxicity; Oral; Gavage/Intubation; dose end: 15 day; group: systemic; systemic / in life observation / clinical signs / emesis.
The test system of data set [4] is primate. To be noted: Sub-acute repeat dose toxicity, Oral, Gavage/Intubation, dose end: 14 day, group: systemic.
Data set [5] deals with dog. The settings on record: Sub-acute repeat dose toxicity, beagle, Oral, Gavage/Intubation, dose end: 10 day, group: systemic.
The subject of data set [6] is primate. To be noted: Sub-acute repeat dose toxicity; Oral; Gavage/Intubation; dose end: 20 day; group: systemic; systemic / in life observation / clinical signs / emesis.
Data set [7] has as its system primate. To be noted: Subchronic oral toxicity in nonrodent, macaque, Gavage/Intubation, dose end: 13 week.
The subject of data set [8] is rat. To be noted: Sub-acute repeat dose toxicity, wistar, Oral, Gavage/Intubation, dose end: 33 day, group: systemic.
Data set [9] has as its system mouse. To be noted: Combined chronic toxicity/carcinogenicity, cd1, Oral, Gavage/Intubation, dose end: 104 week, group: systemic.
Data set [10] concerns rat. To be noted: Chronic toxicity; wistar; Oral; Gavage/Intubation; dose end: 27 week; group: systemic; systemic / clinical chemistry / bile acids / bile acids + systemic / clinical chemistry / cholesterol / cholesterol + systemic / clinical ….
For data set [11], the system named is rat. To be noted: Combined chronic toxicity/carcinogenicity; wistar; Oral; Gavage/Intubation; dose end: 104 week; group: systemic; systemic / in life observation / mortality / mortality + systemic / pathology microscopic / intestine large / [other] + systemic / pathology….
For data set [12], the system named is rat. The settings on record: Combined chronic toxicity/carcinogenicity, sprague dawley, Oral, Feed, dose end: 24 month, group: systemic.
Data set [13] relates to mouse. To be noted: Carcinogenicity; cd1; Oral; Feed; dose end: 78 week; group: systemic; systemic / pathology microscopic / kidney / nephropathy.
Data set [14] concerns dog. To be noted: Chronic toxicity, beagle, Oral, Capsule, dose end: 52 week, group: systemic.
Data set [15] concerns dog. The settings on record: Subchronic oral toxicity in nonrodent, beagle, Feed, dose end: 90 day, group: systemic.
In data set [16] the test system is rat. To be noted: Subchronic oral toxicity in rodents, sprague dawley, Feed, dose end: 90 day, group: systemic.
In data set [17] the test system is rat. To be noted: Multigenerational reproductive toxicity study, sprague dawley, Oral, Feed, dose end: 2 generation.
The subject of data set [18] is rat. To be noted: Prenatal developmental toxicity study, sprague dawley, Oral, Gavage/Intubation, dose end: 17 GD.
In data set [19] the test system is rat. To be noted: Prenatal developmental toxicity study, sprague dawley, Injection, Intramuscular, dose end: 13 GD, group: developmental.
Data set [20] has as its system rat. To be noted: Subchronic oral toxicity in rodents, wistar, Feed, dose end: 13 week, group: systemic.
Setting [21] is: systemic / clinical chemistry / albumin / albumin + systemic / clinical chemistry / globulins / globulins + systemic / clinical chemistry / ….
Where [22] appears, read: systemic / in life observation / clinical signs / salivation.
Setting [23] is: systemic / clinical chemistry / albumin / albumin + systemic / clinical chemistry / cholesterol / cholesterol + systemic / hematology / ….
[24] abbreviates: systemic / clinical chemistry / alanine aminotransferase (alt/sgpt) / alanine aminotransferase (alt/sgpt) + systemic / clinical chemistry / ….
[25] abbreviates: systemic / in life observation / clinical signs / emesis + systemic / in life observation / clinical signs / reduced activity.
The mark [26] stands for this setting: systemic / in life observation / clinical signs / emesis.
Setting [27] is: systemic / in life observation / clinical signs / emesis + systemic / in life observation / clinical signs / abnormal feces.
[28] abbreviates: group: maternal, reproductive / reproductive performance / estrous cycle / abnormal.
Setting [29] is: group: systemic, systemic / clinical chemistry / gamma glutamyl transferase (ggt) / gamma glutamyl transferase (ggt) + systemic / clinical chemistry / ….
Setting [30] is: systemic / clinical chemistry / albumin / albumin + systemic / clinical chemistry / chloride / chloride + systemic / clinical chemistry / ….
Setting [31] is: systemic / clinical chemistry / potassium / potassium + systemic / clinical chemistry / triglycerides / triglycerides + systemic / organ ….
[32] abbreviates: systemic / pathology microscopic / gallbladder / adenoma + systemic / pathology microscopic / gallbladder / hemangioma + systemic / ….
The mark [33] stands for this setting: systemic / pathology microscopic / gallbladder / adenoma + systemic / pathology microscopic / gallbladder / hyperplasia + systemic / ….
The mark [34] stands for this setting: systemic / clinical chemistry / gamma glutamyl transferase (ggt) / gamma glutamyl transferase (ggt).
The mark [35] stands for this setting: systemic / in life observation / body weight / body weight gain + systemic / organ weight / liver / relative to body weight + systemic / ….
Where [36] appears, read: systemic / clinical chemistry / lipids / phospholipids.
[37] abbreviates: systemic / clinical chemistry / aspartate aminotransferase (ast/sgot) / aspartate aminotransferase (ast/sgot) + systemic / clinical ….
The mark [38] stands for this setting: systemic / clinical chemistry / cholesterol / cholesterol + systemic / clinical chemistry / lipids / phospholipids + systemic / hematology….
[39] abbreviates: group: offspring, systemic / in life observation / body weight / offspring (pup) weight.
The mark [40] stands for this setting: group: parental, systemic / in life observation / body weight / body weight + systemic / in life observation / body weight / body weight gain + systemic / in….
Where [41] appears, read: group: developmental, developmental / developmental malformation / bone / [other].
Where [42] appears, read: group: developmental, developmental / developmental malformation / bone / [other] + developmental / developmental malformation / other / other + developmental / ….
[43] abbreviates: group: maternal, systemic / in life observation / body weight / body weight + systemic / in life observation / body weight / body weight gain + systemic / in….
[44] abbreviates: developmental / developmental malformation / mouth / jaw / cleft palate.
The mark [45] stands for this setting: developmental / developmental malformation / mouth / jaw / cleft palate + systemic / in life observation / body weight / fetal weight.
[46] abbreviates: systemic / in life observation / clinical signs / lack of coordination + systemic / in life observation / clinical signs / voluntary muscle ….

Where only a bound is given, the exact number is not on record here.

Take `CC(C)(O)c1ccc(CNC(=O)c2cccnc2Oc2ccc3nonc3c2)cc1`: the LOAEL in data set [1] (setting [21]) is > 160 mg/kg/day; in data set [2] (setting [23]) it was > 125 mg/kg/day; in data set [3], > 50 mg/kg/day; in data set [4] (setting [24]) it was > 1000 mg/kg/day; in data set [5] (setting [27]), > 250 mg/kg/day; in [6] it was > 300 mg/kg/day. In addition, the NOAEL is ≥ 160 mg/kg/day in [1] (setting [21]); ≥ 125 mg/kg/day in data set [2] (setting [23]); ≥ 50 mg/kg/day in data set [3]; ≥ 1000 mg/kg/day in [4] (setting [24]); ≥ 250 mg/kg/day in data set [5] (setting [27]); ≥ 300 mg/kg/day in [6]. In addition, the LEL in [1] (setting [22]) worked out at 5 mg/kg/day; in [2] (systemic / pathology microscopic / mesentery / inflammation), 25 mg/kg/day; in [3] it was 5 mg/kg/day; in [4] (setting [25]), 20 mg/kg/day; in data set [5] (setting [26]), 10 mg/kg/day; in data set [6], 20 mg/kg/day. For the same compound, the NEL in data set [1] (setting [22]) is < 5 mg/kg/day; in data set [2] (setting [23]) it was 5 mg/kg/day; in data set [3] it was 1 mg/kg/day; in data set [4] (setting [25]), < 20 mg/kg/day; in data set [5] (setting [26]), < 10 mg/kg/day; in data set [6] it was < 20 mg/kg/day.

With `Cc1oc(-c2ccccc2)nc1CCOc1ccc(C[C@H](Nc2ccccc2C(=O)c2ccccc2)C(=O)O)cc1` [Farglitazar], the LEL in data set [7] (setting [28]) came out at 50 mg/kg/day; in data set [7] (setting [29]), 0.5 mg/kg/day; in data set [8] (setting [31]), 0.5 mg/kg/day; in [9] (setting [33]), 1 mg/kg/day; in data set [10], 0.5 mg/kg/day; in data set [11] it was 0.5 mg/kg/day. Also, the LOAEL was > 50 mg/kg/day in [7] (setting [28]); > 50 mg/kg/day in [7] (setting [29]); > 500 mg/kg/day in data set [8] (setting [30]); > 50 mg/kg/day in [9] (setting [32]); > 50 mg/kg/day in data set [10]; > 20 mg/kg/day in data set [11]. For the same compound, the NEL in data set [7] (setting [28]) is 5 mg/kg/day; in [7] (setting [29]), < 0.5 mg/kg/day; in data set [8] (setting [31]), < 0.5 mg/kg/day; in [9] (setting [33]), < 1 mg/kg/day; in [10] it was < 0.5 mg/kg/day; in [11], < 0.5 mg/kg/day. Moreover, the NOAEL in data set [7] (setting [28]) is ≥ 50 mg/kg/day; in data set [7] (setting [29]), ≥ 50 mg/kg/day; in data set [8] (setting [30]), ≥ 500 mg/kg/day; in data set [9] (setting [32]), ≥ 50 mg/kg/day; in data set [10] it was ≥ 50 mg/kg/day; in data set [11], ≥ 20 mg/kg/day.

On to `CC(COc1ccc(Oc2ccccc2)cc1)Oc1ccccn1` (configuration not stated) [Pyriproxyfen], for which the LEL in [12] (setting [34]) was 7.04 mg/kg/day; in [13], 420 mg/kg/day; in data set [14] (systemic / in life observation / body weight / body weight gain + systemic / clinical chemistry / cholesterol / cholesterol + systemic / …), 100 mg/kg/day; in data set [15] (setting [36]), 100 mg/kg/day; in [16] (setting [37]) it was 23.5 mg/kg/day; in data set [17] (setting [39]) it was 453 mg/kg/day. For the same compound, the LEL in [17] (group: parental, systemic / organ weight / liver / relative to body weight + systemic / pathology microscopic / kidney / inflammation + systemic / organ …) was 87 mg/kg/day; in [18] (setting [41]) it was 300 mg/kg/day; in [18] (setting [43]), 300 mg/kg/day. Besides, the NEL in data set [12] (setting [34]) is < 7.04 mg/kg/day; in data set [13], 84 mg/kg/day; in data set [14] (setting [35]) it was 30 mg/kg/day; in data set [15] (setting [36]), < 100 mg/kg/day; in data set [16] (setting [37]) it was < 23.5 mg/kg/day; in data set [17] (setting [39]), 87 mg/kg/day. Further, the results for the NEL in data set [17] (setting [40]), in data set [18] (setting [42]) and in data set [18] (setting [43]) were 18 mg/kg/day, 100 mg/kg/day and 100 mg/kg/day, respectively. In addition, the NOAEL was 35.1 mg/kg/day in [12] (systemic / clinical chemistry / gamma glutamyl transferase (ggt) / gamma glutamyl transferase (ggt) + systemic / in life observation / body …); 84 mg/kg/day in data set [13]; 100 mg/kg/day in data set [14] (setting [35]); 100 mg/kg/day in data set [15] (systemic / pathology microscopic / liver / hypertrophy + systemic / clinical chemistry / alpha-1 globulin / alpha-1 globulin + systemic / …); 23.5 mg/kg/day in [16] (setting [38]); 87 mg/kg/day in data set [17] (setting [39]). Further, the NOAEL was determined as 87 mg/kg/day in [17] (setting [40]), 100 mg/kg/day in data set [18] (setting [42]) and 100 mg/kg/day in data set [18] (setting [43]). Besides, the LOAEL in data set [12] (systemic / in life observation / body weight / body weight) worked out at 183 mg/kg/day; in [13], 420 mg/kg/day; in data set [14] (systemic / in life observation / body weight / body weight gain + systemic / organ weight / liver / relative to body weight), 300 mg/kg/day; in [15] (systemic / pathology microscopic / liver / hypertrophy + systemic / organ weight / liver / absolute + systemic / organ weight / liver / …), 300 mg/kg/day; in data set [16] (setting [38]), 118 mg/kg/day; in [17] (setting [39]), 453 mg/kg/day. Besides, the LOAEL in data set [17] (setting [40]) was 453 mg/kg/day; in data set [18] (setting [41]) it was 300 mg/kg/day; in [18] (setting [43]), 300 mg/kg/day.

For the compound `C[C@]12C=CC(=O)C=C1CC[C@H]1[C@@H]3C[C@@H](O)[C@](O)(C(=O)CO)[C@@]3(C)C[C@H](O)[C@@]12F` [Triamcinolone], in data set [19] (setting [44]), the LEL amounted to 10 mg/kg/day and the NEL was < 10 mg/kg/day. Also, in data set [19] (setting [45]), the LOAEL is > 40 mg/kg/day and the NOAEL is ≥ 40 mg/kg/day.

As to `CC1(C)[C@H](C(=O)O[C@H](C#N)c2cccc(Oc3ccccc3)c2)[C@@H]1/C=C(\Cl)C(F)(F)F` [gamma-Cyhalothrin], in data set [20] (setting [46]), the LOAEL turned out to be 6.6 mg/kg/day, the NEL turned out to be 0.7 mg/kg/day and the NOAEL turned out to be 3.4 mg/kg/day. This compound showed an LEL in data set [20] (systemic / organ weight / liver / relative to body weight) of 3.4 mg/kg/day.

The LOAEL is the lowest tested level that showed an adverse finding. The term NOAEL denotes the highest dose or exposure tested at which no adverse effect was seen.
